Assay results as given in article PMC4527731, “Calcineurin Undergoes a Conformational Switch Evoked via Peptidyl-Prolyl Isomerization” (PLoS ONE, 2015).

Tests used:
[1] = system: Endogenous CNA / GST-RCAN3 interaction; test: GST-RCAN3 pull-down competition assay; assay type: binding; settings: HEK 293T lysate, peptide at increasing concentrations for 30 min, then GST–RCAN3 beads 90 min at 4°C (Fig 6b)
Protocol: (§1) In GST-RCAN3 pull-down competition assays, HEK 293T cells were lysed in co-immunoprecipitation buffer (50 mM Tris–HCl, pH 7.5, 100 mM NaCl, 2 mM CaCl2, 5 mM MgCl2, 1% IGEPAL, 1 mM DTT, 2 mM PMSF and protease and phosphatase inhibitor cocktails) and the CNA- and the RCAN3-derived peptides containing a PxIxIT sequence were added to the extracts at the indicated concentrations for 30 min. Then, the soluble extracts were incubated with GST–RCAN3 bound to Glutathione Sepharose beads for 90 min at 4°C. After extensive washing, co-precipitated proteins were eluted by resuspension in 2× Laemmli buffer and boiled for 10 min. For GST–NFATc2 pull-down competition assays, HEK 293T cells transfected with FLAG–CNA (2–389) were lysed in a buffer containing 50 mM Tris–HCl, pH 8, 100 mM NaCl, 1.5 mM CaCl2, 6 mM MgCl2, 0.2% TX-100, 1 mM PMSF and protease and phosphatase inhibitor cocktails. Soluble extracts were incubated with GST–NFATc2 bound to Glutathione Sepharose beads for 60 min at 4°C.

[2] = system: Flag-CNA 2–389 / GST-NFATc2 interaction; test: GST-NFATc2 pull-down competition assay; assay type: binding; settings: HEK 293T cells transfected with FLAG–CNA (2–389); soluble extracts with GST–NFATc2 beads 60 min at 4°C; increasing peptide concentrations (Fig 6c)
Protocol: as §1

[3] = system: CNA (human CNAα catalytic domain); test: Fluorescence polarization competition of CF-SPRIEIT-CNA complex; assay type: binding; settings: 10 nM CF-labeled SPRIEIT, 10 μM CNA, unlabeled competitor pre-incubated 15 min at increasing concentrations, room temperature, ex 485 nm, em 535 nm, two independent experiments in triplicates (Fig 6a)
Protocol: Peptides were purchased from the Peptide 2.0 Company (Chantilly, VA) and synthesized as acetylated N-terminal and C-terminal amides for the unlabeled peptides and N-carboxyfluorescein (CF) and C-terminal amide for the labelled peptide. The sequences of the peptides used are the following: […] for the RCAN^183–203 peptide; […] for the cis-CNA derived peptide; and […] for the NFATc2-SPRIEIT (SPRIEIT) peptide. All peptides were resuspended in 100% DMSO at 10 mM. Cyclosporin A (CsA) was obtained from Sandoz. Ionomycin (Io) sodium salt and Phorbol 12-myristate 13-acetate sodium salt (PMA) were obtained from Sigma. The anti-calcineurin A antibody was purchased from BD Biosciences and the anti-Flag M2 antibody was purchased from Sigma. The protease and phosphatase inhibitor cocktails were from Calbiochem.
Expression, purification and isolation of the CNAα domain was performed as previously described. […]
Competition assays were performed as described. […] Unlabeled competitor peptides were pre-incubated with CNA at increasing concentrations for 15 min before adding the fluorescence labeled peptide. Experiments were performed in a OptiPlate black 384-well-flat-bottom plates (PerkinElmer Life Sciences, Waltham, MA) and measured using a Wallac VICTOR (TM) X5 2030 Multilabel Reader (PerkinElmer Life Sciences) with excitation and emission wavelengths of 485 nm and 535 nm respectively. […]

[4] = system: Endogenous CN in HEK 293T cells; test: Inhibition of endogenous CN activity by CsA in NFATc-luciferase reporter assay; assay type: cell-based; settings: 1 μM CsA, 30 min before stimulation with Io/PMA/Ca^2+ for 6 hours
Protocol: Flag-hCNAα mutants were performed by PCR using CN specific primers (Table 2). ΔNIR mutant lacks the CNA PXIXIT binding region VMNIR ranging from amino acids 328 to 332. All Flag-CNA constructs bear the Y341F mutation to achieve CsA resistance unless for the specified wt. Luciferase gene assays were performed in HEK 293T cells transfected with 100 ng of 3xNFAT-luc plasmid, 100 ng of pBJ5-mCNB, 1 ng of pRLNull as an internal transfection control and 400 ng of the indicated Flag-hCNAα mutants constructs. Stimulation was achieved by treating the cells with.1 μM ionomycin, 10 nM PMA and 10 mM CaCl2. Endogenous CN activity was abolished by treating cells with 1 μM Cyclosporin A (CsA) 30 min prior to stimulation. FK506 was used as a positive control for CsA-resistant CN. After 6h of cell stimulation, 10 μl of cell extract were analyzed for luciferase gene expression using the Dual-Luciferase Reporter Assay (Promega) following the manufacturer’s protocol on a multiplate luminometer (FLUOstar Optima, BMG). Luciferase units were normalized to densitometric data of 10 μl of cell extract analyzed by western blot. Absence of cell stimulation is shown with a minus symbol (-). Three experiments were performed with triplicates. Stimulation of the Y341F mutant was considered as 100% value.

[5] = biological target: T1, catalytic domain of human CNAα (residues 2–347) (human, UniProt Q08209-1 2-347); test: fluorescence polarisation; competition: 10 nM CF-labeled SPRIEIT peptide and 10 μM CNA; unlabeled competitor peptides pre-incubated with CNA at increasing concentrations for 15 min; room temperature; settings: both partners purified
T1 construct: calcineurin catalytic subunit A, alpha isoform, human, NCBI NP_000935.1, catalytic domain residues 2-347; also called CNAα catalytic domain; trans-CNA; source: from the pGEX-6P-1-CNAα plasmid
T1 sequence (Q08209 2-347): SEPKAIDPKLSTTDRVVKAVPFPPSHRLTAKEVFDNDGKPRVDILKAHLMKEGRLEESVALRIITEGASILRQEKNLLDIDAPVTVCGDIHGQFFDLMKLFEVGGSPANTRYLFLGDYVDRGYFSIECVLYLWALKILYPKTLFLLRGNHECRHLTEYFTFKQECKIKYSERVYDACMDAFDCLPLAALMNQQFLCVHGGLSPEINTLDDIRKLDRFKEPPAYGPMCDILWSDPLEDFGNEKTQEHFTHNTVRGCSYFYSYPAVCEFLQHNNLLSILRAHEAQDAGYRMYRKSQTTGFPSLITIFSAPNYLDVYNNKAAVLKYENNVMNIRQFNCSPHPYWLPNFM

Row | Molecule | interference with CN–GST-RCAN3 interaction (pull down) [1] | interference with CN–GST-NFATc2 interaction (pull down) [2] | interference with CN–SPRIEIT peptide interaction (fluorescence polarization competition) [3] | endogenous CN activity after CsA treatment [4] | binding result [5]
1 | NNKAAVLKYE | does not interfere with high affinity interactions | does not interfere with high affinity interactions | does not interfere with high affinity interactions | – | –
2 | KYELHAGTESTPSVVVHVCES [R3^183-203, RCAN3-derived PxIxIT-containing peptide (amino acids 183–203)] | able to disrupt CN interaction with proteins containing a PxIxIT motif | able to disrupt CN interaction with proteins containing a PxIxIT motif | able to disrupt CN interaction with proteins containing a PxIxIT motif | – | –
3 | Cyclosporin A [CsA] | – | – | – | abolished | –
4 | Ac-KYELHAGTESTPSVVVHVCES-NH2 (source: synthetic peptide, bought: Peptide 2.0 Company) [RCAN3-derived PxIxIT-containing peptide (amino acids 183–203)] | – | – | – | – | binds
